Source: ChEMBL document CHEMBL2303647, “Data associated with the publication PLoS ONE, 8(3), e57888, (2013) PMID: 23505445. Compounds: GSK PKIS; Assays: NIH NCATS”

How the values were obtained:
[1] = molecular target: Luciferin 4-monooxygenase (Photinus pyralis, UniProt P08659)
Description: GSK_PKIS: Inhibition of Firefly Luciferase (Data from PubChem: AID 652016) [NIH NCATS]

[2] = molecular target: T1, Coelenterazine h 2-monooxygenase (Renilla reniformis, UniProt P27652)
T1 sequence (P27652 whole entry): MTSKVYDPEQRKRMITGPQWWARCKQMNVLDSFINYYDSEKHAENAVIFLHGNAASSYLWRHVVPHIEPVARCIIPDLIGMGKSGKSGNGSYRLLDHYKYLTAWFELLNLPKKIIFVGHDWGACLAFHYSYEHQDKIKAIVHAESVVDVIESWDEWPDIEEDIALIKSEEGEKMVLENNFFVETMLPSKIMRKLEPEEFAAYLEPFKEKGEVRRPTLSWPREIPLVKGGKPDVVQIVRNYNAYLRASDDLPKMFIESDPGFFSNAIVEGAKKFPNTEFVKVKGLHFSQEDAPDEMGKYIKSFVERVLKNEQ
Description: GSK_PKIS: Inhibition of Sea Pansy Luciferase (Data from PubChem: AID 652015) [NIH NCATS]

Chain of Luciferin 4-monooxygenase (P08659 whole entry): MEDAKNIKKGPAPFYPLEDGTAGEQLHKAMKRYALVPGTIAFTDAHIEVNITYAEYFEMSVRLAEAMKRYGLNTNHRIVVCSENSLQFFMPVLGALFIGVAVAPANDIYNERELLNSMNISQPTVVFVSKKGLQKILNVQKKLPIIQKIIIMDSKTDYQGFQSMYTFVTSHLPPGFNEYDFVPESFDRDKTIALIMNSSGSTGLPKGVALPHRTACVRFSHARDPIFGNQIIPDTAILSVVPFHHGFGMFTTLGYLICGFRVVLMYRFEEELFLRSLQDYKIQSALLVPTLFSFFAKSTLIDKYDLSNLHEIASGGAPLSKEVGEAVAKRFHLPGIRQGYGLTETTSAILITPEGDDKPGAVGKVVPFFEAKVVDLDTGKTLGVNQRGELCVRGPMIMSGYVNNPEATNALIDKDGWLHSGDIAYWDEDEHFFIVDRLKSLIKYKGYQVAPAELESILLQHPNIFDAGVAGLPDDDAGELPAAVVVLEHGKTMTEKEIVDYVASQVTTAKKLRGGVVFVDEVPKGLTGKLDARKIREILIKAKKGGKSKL

AC50 ([2]; read-out: AC50) [µM] | AC50 ([1]; read-out: AC50) [µM] | Compound | AC50 [1] | AC50 [2]
– | – | CNC(=O)c1cccc(C#Cc2cncnc2Nc2ccc(OCc3cccc(F)c3)c(Cl)c2)c1 [GW772405X] | Phenotype: Inactive; Curve_Description: None | Phenotype: Inactive; Curve_Description: None
– | – | N#Cc1cccc(Nc2nccc(-c3cnn4ncccc34)n2)c1 [GW778894X] | Phenotype: Inactive; Curve_Description: None | Phenotype: Inactive; Curve_Description: None
20.6 | – | CCN(CC)Cc1ccc(Nc2nccc(-c3cnn4ncccc34)n2)cc1 [GW780056X] | Phenotype: Inactive; Curve_Description: None | –
– | – | Nc1nc(-c2cccc(Cl)c2)c(-c2ccc3ncccc3n2)s1 [GW780159X] | Phenotype: Inactive; Curve_Description: None | Phenotype: Inactive; Curve_Description: None
– | – | Clc1ccc(CNc2nccc(-c3cnn4ncccc34)n2)cc1 [GW781673X] | Phenotype: Inactive; Curve_Description: None | Phenotype: Inactive; Curve_Description: None
– | 13 | NC(=O)c1cccc(Nc2nccc(Nc3cccc4[nH]ncc34)n2)c1 [GW782612X] | – | Phenotype: Inactive; Curve_Description: None
– | – | Cc1ccc(C(=O)NC2CCCCC2)cc1-c1ccc(C(=O)NCC2CC2)cc1 [GW782907X] | Phenotype: Inactive; Curve_Description: None | Phenotype: Inactive; Curve_Description: None
– | 29.1 | Cc1ccc(C(=O)NC2CCC2)cc1-c1ccc(C(=O)NCC2CC2)cc1 [GW782912X] | – | Phenotype: Inactive; Curve_Description: None
– | 16.3 | COc1cccc(-n2ncc3c(N/N=C/c4ccc(C(=O)NCCN(C)C)cc4)ncnc32)c1.Cl [GW784307A] | – | Phenotype: Inactive; Curve_Description: None
– | 6.51 | COc1cccc(-n2ncc3c(N/N=C/c4ccncc4)ncnc32)c1 [GW784752X] | – | Phenotype: Activator; Curve_Description: None
– | – | CCn1c(-c2nonc2N)nc2ccc(F)cc21 [GW785404X] | Phenotype: Inactive; Curve_Description: None | Phenotype: Inactive; Curve_Description: None
– | – | Nc1nc(-c2ccc(F)cc2)c(-c2ccc3ncccc3n2)s1 [GW785804X] | Phenotype: Inactive; Curve_Description: None | Phenotype: Inactive; Curve_Description: None
– | – | Cc1ccc(C(=O)NC(C)C)cc1-c1ccc(C(=O)NCC2CC2)cc1 [GW785974X] | Phenotype: Inactive; Curve_Description: None | Phenotype: Inactive; Curve_Description: None
– | – | Cc1cccc(-c2n[nH]cc2-c2ccc3ncccc3n2)n1 [GW786460X] | Phenotype: Inactive; Curve_Description: None | Phenotype: Inactive; Curve_Description: None
– | – | CCCNc1cccc(-n2ncc3c(N/N=C/c4ccncc4)ncnc32)c1 [GW794607X] | Phenotype: Inactive; Curve_Description: None | Phenotype: Inactive; Curve_Description: None
– | – | CC(=O)Nc1cccc(C#Cc2cncnc2Nc2ccc(OCc3cccc(F)c3)c(Cl)c2)n1 [GW794726X] | Phenotype: Inactive; Curve_Description: None | Phenotype: Inactive; Curve_Description: None
– | – | Nc1ncnc2occ(-c3ccc(NC(=O)Nc4cccc(C(F)(F)F)c4)cc3)c12 [GW795493X] | Phenotype: Inactive; Curve_Description: None | Phenotype: Inactive; Curve_Description: None
– | 18.3 | Cc1ccc(NC(=O)CC2CC2)cc1-c1ccc(C(=O)NCC2CC2)cc1 [GW796920X] | – | Phenotype: Inactive; Curve_Description: None
– | 18.3 | CCC(=O)Nc1ccc(C)c(-c2ccc(C(=O)NCC3CC3)cc2)c1 [GW796921X] | – | Phenotype: Inactive; Curve_Description: None
– | – | COc1cc(Nc2nccc(-c3cnn4ncccc34)n2)cc(OC)c1 [GW801372X] | Phenotype: Inactive; Curve_Description: None | Phenotype: Inactive; Curve_Description: None
20.6 | – | COc1cccc(COc2cc(-n3cnc4ccccc43)sc2C(N)=O)c1 [GW804482X] | Phenotype: Inactive; Curve_Description: None | –
– | 20.6 | CC(C)c1ccc(Nc2nccc(-c3cnn4ncccc34)n2)cc1 [GW805758X] | – | Phenotype: Inactive; Curve_Description: None
– | 2.91 | c1cnn2ncc(-c3ccnc(Nc4ccc5c(c4)OCCO5)n3)c2c1 [GW806290X] | – | Phenotype: Inactive; Curve_Description: None

AC50 ([2]; read-out: AC50) [µM] | AC50 ([1]; read-out: AC50) [µM] | Compound | AC50 [1] | AC50 [2]
– | 18.3 | CN(c1ccc(NC(=O)Nc2ccc(OC(F)(F)F)cc2)cc1)c1ccnc(Nc2cccc(S(N)(=O)=O)c2)n1 [GW806742X] | – | Phenotype: Inactive; Curve_Description: None
7.3 | 9.19 | O=C(NCC1CC1)c1ccc(-c2cccc(C(=O)NC3CC3)c2)cc1 [GW806776X] | – | –
– | – | CC(=O)NCc1cccc(C#Cc2cncnc2Nc2ccc(OCc3cccc(F)c3)c(Cl)c2)c1 [GW807930X] | Phenotype: Activator; Curve_Description: None | Phenotype: Inactive; Curve_Description: None
– | 14.6 | CCOc1ccc2c(-c3ccnc(Nc4cc(OC)cc(C(F)(F)F)c4)n3)cnn2n1 [GW807982X] | – | Phenotype: Activator; Curve_Description: None
– | – | COc1cccc(-n2nc(C)c3c(N/N=C(\C)c4ccncc4)ncnc32)c1 [GW809885X] | Phenotype: Inactive; Curve_Description: None | Phenotype: Inactive; Curve_Description: None
– | 0.58 | CN(c1ccc(NC(=O)Nc2c(Cl)cccc2Cl)cc1)c1ccnc(Nc2cccc(CS(C)(=O)=O)c2)n1 [GW809897X] | – | Phenotype: Inactive; Curve_Description: None
– | – | COc1ccc2c(-c3ccnc(Nc4cccc(OC(F)(F)F)c4)n3)cnn2n1 [GW810372X] | Phenotype: Inactive; Curve_Description: None | Phenotype: Activator; Curve_Description: None
– | – | CCOc1ccc2c(-c3ccnc(Nc4cccc(C(F)(F)F)c4)n3)cnn2n1 [GW811761X] | Phenotype: Inactive; Curve_Description: None | Phenotype: Inactive; Curve_Description: None
– | 16.3 | COc1cccc(-n2cnc3c(N/N=C/c4ccncc4)ncnc32)c1 [GW813360X] | – | Phenotype: Inactive; Curve_Description: None
– | 5.8 | COc1cccc(-c2c[nH]c3c(N/N=C/c4ccncc4)ncnc23)c1 [GW814408X] | – | Phenotype: Inactive; Curve_Description: None
– | 18.3 | COc1cccc(-n2ncc3c(N/N=C/c4cccc(F)c4)ncnc32)c1 [GW817394X] | – | Phenotype: Inactive; Curve_Description: None
0.0005 | 32.6 | COc1cccc(-n2ncc3c(N/N=C/c4ccc(F)cc4)ncnc32)c1 [GW817396X] | – | –
– | – | FC(F)(F)c1cccc(Nc2nccc(-c3cnn4nc(-c5ccccc5)ccc34)n2)c1 [GW819077X] | Phenotype: Inactive; Curve_Description: None | Phenotype: Inactive; Curve_Description: None
– | 18.3 | Cc1ccc(-c2cc3c(NC(=O)C4CC4)ncnc3o2)cc1 [GW819230X] | – | Phenotype: Inactive; Curve_Description: None
– | 11.6 | Cl.NS(=O)(=O)c1cccc(Nc2cc(-c3ccc(F)cc3)n[nH]2)c1 [GW824645A] | – | Phenotype: Inactive; Curve_Description: None
– | 18.3 | Fc1ccc(-c2nn3ncccc3c2-c2ccnc(Nc3ccc4c(c3)OCCO4)n2)cc1 [GW827099X] | – | Phenotype: Inactive; Curve_Description: None
– | 32.6 | FC(F)(F)c1cccc(-c2nn3ncccc3c2-c2ccnc(Nc3ccc4c(c3)OCCO4)n2)c1 [GW827102X] | – | Phenotype: Inactive; Curve_Description: None
– | – | COc1ccc(-c2nn3ncccc3c2-c2ccnc(Nc3cccc(C(F)(F)F)c3)n2)cc1 [GW827105X] | Phenotype: Inactive; Curve_Description: None | Phenotype: Inactive; Curve_Description: None
– | – | COc1ccc(-c2nn3ncccc3c2-c2ccnc(Nc3ccc4c(c3)OCCO4)n2)cc1 [GW827106X] | Phenotype: Inactive; Curve_Description: None | Phenotype: Inactive; Curve_Description: None
– | – | COc1ccc(-c2nn3ncccc3c2-c2ccnc(Nc3ccc(F)c(F)c3)n2)cc1 [GW827396X] | Phenotype: Inactive; Curve_Description: None | Phenotype: Inactive; Curve_Description: None
– | – | FC(F)(F)c1ccc(-c2nn3ncccc3c2-c2ccnc(Nc3ccc4c(c3)OCCO4)n2)cc1 [GW828525X] | Phenotype: Inactive; Curve_Description: None | Phenotype: Inactive; Curve_Description: None
– | – | Fc1ccc(Nc2nccc(-c3c(-c4ccc(C(F)(F)F)cc4)nn4ncccc34)n2)cc1F [GW828529X] | Phenotype: Inactive; Curve_Description: None | Phenotype: Inactive; Curve_Description: None
– | – | Clc1ccc(-c2nn3ncccc3c2-c2ccnc(Nc3ccccc3)n2)cc1 [GW829055X] | Phenotype: Inactive; Curve_Description: None | Phenotype: Inactive; Curve_Description: None

Compound | AC50 ([2]; read-out: AC50) [µM] | AC50 ([1]; read-out: AC50) [µM] | AC50 [1] | AC50 [2]
CN1CCN(Cc2ccc(-c3cc4ncnc(Nc5ccc(OCc6cccc(F)c6)c(Cl)c5)c4s3)o2)CC1 [GW784684X] | 20.6 | – | Phenotype: Inactive; Curve_Description: None | –
Nc1ncnc2occ(-c3ccc(NC(=O)Nc4cc(C(F)(F)F)cc(C(F)(F)F)c4)cc3)c12 [GW795486X] | 16.3 | – | Phenotype: Inactive; Curve_Description: None | –
Nc1nccc(C#Cc2cncnc2Nc2ccc(OCc3cccc(F)c3)c(Cl)c2)n1 [GW799251X] | – | 14.6 | – | Phenotype: Inactive; Curve_Description: None
Cc1ccc(C(=O)NC2CC2)cc1-c1ccc2[nH]ncc2c1 [GW820759X] | 20.6 | 18.3 | – | –
